The subject of data set [1] is L6. To be noted: Rattus norvegicus, time 90.0 min.
Data set [2] is described as follows: (§1) Induction of mitochondrial uncoupling activity in rat L6 cells assessed as increase in oxygen consumption rate at 0.37 to 200 uM measured after 90 mins by agilent Seahorse XF analyzer relative to BAM15. To be noted: dose 0.37-200 µM, 1.5 h. Type of data set: functional.
A short description of data set [3]: Induction of mitochondrial uncoupling activity in rat L6 cells assessed as increase in oxygen consumption rate measured after 90 mins by agilent Seahorse XF analyzer. Type of data set: functional, cell-based.
In data set [4] the test system is L6. Described as §1. Type of data set: functional. To be noted: dose 0.37-200 µM.
Data set [5] is described as follows: Half life in C57BL/6 mouse at 10 mg/kg, po administered via gavage measured upto 24 hrs by LC/MS-MS analysis. Type of data set: ADME, organism-based. To be noted: in vivo.
Data set [6] can be described thus: Cmax in C57BL/6 mouse at 10 mg/kg, po administered via gavage measured upto 24 hrs by LC/MS-MS analysis. Type of data set: ADME, organism-based. Further details: dose 10 mg/kg, time < 24 hrs, route po. To be noted: in vivo.
The subject of data set [7] is Mus musculus. The data set can be described thus: Anti-obesity activity against HFD-induced C57BL/6J mouse model assessed as reduction in diet-induced weight gain at 125 mg/kg/day measured after 8 weeks. Type of data set: functional. More on the design: scale not given: the % may be the effect or the level left.
Data set [8] relates to Mus musculus. The data set can be described thus: Anti-obesity activity against HFD-induced C57BL/6 mouse model assessed as reduction in body fat mass at 5 mg/kg, po via gavage administered 3 times a week measured after 6 weeks. It counts as functional. More on the design: scale not given: the % may be the effect or the level left.

Activity calls are given as the source filed them. The calls are words filed in the database; no cut-off is given here. A value given as a limit tells only on which side of the number the result lay.

`Oc1nc2nonc2cc1Nc1ccc(C(F)(F)F)cc1F`: the pEC50 entry in the data set on L6 [1] was “inactive”. In data set [2], the Activity came to 9%.

As for `Oc1nc2nonc2cc1Nc1ccc(F)cc1`, in the data set with L6 [1], the pEC50 entry was “inactive”. Moreover, the Activity in data set [2] was found to be 6%.

In the case of `Oc1nc2nonc2cc1Nc1ccc(C(F)(F)F)cc1`, the 50% effective concentration (EC50) in data set [3] worked out at 6.9 µM. In addition, the Activity in data set [2] turned out to be 28%.

In the case of `Oc1nc2nonc2cc1Nc1cc(F)ccc1F`, the pEC50 in data set [3] is listed as 4.7. Further, in data set [2], the Activity is given as 27%.

Take `Oc1nc2nonc2cc1Nc1ccccc1OC(F)(F)F`: the pEC50 result with L6 [1] is “inactive”. Further, the result in the data set with L6 [4] was inactive.

For the molecule `Oc1nc2nonc2cc1Nc1cc(F)c(C(F)(F)F)c(F)c1`, the pEC50 in data set [3] is on record as 5.9. The Activity in data set [2] turned out to be 33%.

Turning to `Oc1nc2nonc2cc1Nc1cc(OC(F)(F)F)c(F)cc1F`, the pEC50 in data set [3] is recorded as 5.7. The Activity in data set [2] was determined as 58%.

With `Oc1nc2nonc2cc1Nc1cccc(F)c1F`, the pEC50 result in the data set with L6 [1] was “inactive”. Further, the Activity in data set [2] was determined as 3%.

As for `Oc1nc2nonc2cc1Nc1cc(C(F)(F)F)ccc1C(F)(F)F`, the t1/2 in data set [5] amounted to 2.2 h. For the same molecule, in data set [3], the 50% effective concentration (EC50) is 1.5 µM and the negative logarithm of the EC50 (pEC50) was 5.7. Further, the Cmax in data set [6] is 29 µM. Besides, in data set [2], the Activity was determined as 72%.

Take `Oc1nc2nonc2cc1Nc1ccc(F)cc1F`: the pEC50 entry in the data set on L6 [1] is “inactive”. Moreover, the outcome in the data set on L6 [4] was inactive.

On to `Oc1nc2nonc2cc1Nc1cccc(C(F)(F)F)c1C(F)(F)F`, for which the negative logarithm of the EC50 (pEC50) in data set [3] was determined as 5.7. The Activity in data set [2] turned out to be 11%.

For `Oc1nc2nonc2cc1Nc1ccc(C(F)(F)F)nc1`, in data set [3], the 50% effective concentration (EC50) came to 20 µM and the pEC50 was 4.7. The Activity in data set [2] was determined as 26%.

With `COc1ccc(Nc2cc3nonc3nc2O)cc1`, the pEC50 entry in the data set on L6 [1] was “inactive”. Moreover, the outcome in the data set with L6 [4] was inactive.

With `Oc1nc2nonc2cc1Nc1ccc(F)c(F)c1`, the pEC50 in data set [3] turned out to be 4.2. In data set [2], the Activity came out at 17%.

For `Oc1nc2nonc2cc1Nc1cccc(F)c1C(F)(F)F`, the pEC50 in data set [3] came to 5.3. The Activity in data set [2] was found to be 26%.

Consider `Oc1nc2nonc2cc1Nc1ccc(F)c(F)c1F`, for which the pEC50 entry with L6 [1] is “inactive”. The Activity in data set [2] is recorded as 2%.

Take `Oc1nc2nonc2cc1Nc1cc(F)ccc1OC(F)(F)F`: in data set [3], the pEC50 came out at 5.9. In addition, the Activity in data set [2] was found to be 13%.

In the case of `Oc1nc2nonc2cc1Nc1c(F)cc(F)cc1F`, the pEC50 in data set [3] was found to be 4.4. The Activity in data set [2] is given as 14%.

In the case of `Oc1nc2nonc2cc1Nc1cc(F)cc(C(F)(F)F)c1`, the pEC50 in data set [3] is 6.1. The Activity in data set [2] amounted to 11%.

Turning to `Oc1nc2nonc2cc1Nc1ccc(S(F)(F)(F)(F)F)cc1`, the pEC50 in data set [3] is 6.2. The Activity in data set [2] is 4%.

As to `Oc1nc2nonc2cc1Nc1ccc(OC(F)(F)F)cc1C(F)(F)F`, in data set [5], the t1/2 was more than 24 h. Moreover, in data set [3], the concentration for a half-maximal effect (EC50) turned out to be 3.1 µM and the pEC50 is given as 5.5. The same molecule displayed a Cmax in data set [6] of 10 µM. Further, in data set [2], the Activity is listed as 57%.

As for `O=C(Nc1ccc([N+](=O)[O-])cc1Cl)c1cc(Cl)ccc1O` [NICLOSAMIDE], the Activity in the data set on Mus musculus [7] is recorded as 25%.

In the case of `Oc1nc2nonc2cc1Nc1cccc(F)c1`, the pEC50 result with L6 [1] is “inactive”. The Activity in data set [2] was 3%.

As to `Oc1nc2nonc2cc1Nc1ccc(F)cc1OC(F)(F)F`, the negative logarithm of the EC50 (pEC50) in data set [3] was found to be 5.7. Moreover, in data set [2], the Activity was determined as 14%.

As for `Oc1nc2nonc2cc1Nc1ccc(OC(F)(F)F)c(F)c1`, the pEC50 in data set [3] came out at 5.6. Moreover, the Activity in data set [2] amounted to 25%.

Take `Oc1nc2nonc2cc1Nc1cc(F)c(F)c(F)c1`: the pEC50 in data set [3] turned out to be 5.6. Also, in data set [2], the Activity is 21%.

As for `Oc1nc2nonc2cc1Nc1ccc(C(F)(F)F)cc1C(F)(F)F`, the pEC50 in data set [3] turned out to be 6. In addition, in data set [2], the Activity was 34%.

`CC(C)(C)c1ccccc1Nc1cc2nonc2nc1O`: the pEC50 result with L6 [1] was “inactive”. In addition, the result in the data set on L6 [4] was inactive.

For `Oc1nc2nonc2cc1Nc1cccc(S(F)(F)(F)(F)F)c1`, the pEC50 in data set [3] worked out at 5.9. For the same molecule, in data set [2], the Activity was found to be 20%.

`Oc1nc2nonc2cc1Nc1ccc(OC(F)(F)C(F)F)cc1`: the pEC50 entry with L6 [1] was “inactive”. For the same molecule, in the data set with L6 [4], the outcome was inactive.

For the molecule `Cc1ccc(Nc2cc3nonc3nc2O)cc1`, in the data set on L6 [1], the pEC50 entry was “inactive”. The result with L6 [4] was inactive.

As for `Oc1nc2nonc2cc1Nc1cc(F)cc(OC(F)(F)F)c1`, the pEC50 entry in the data set on L6 [1] was “inactive”. For the same molecule, the Activity in data set [2] was 6%.

In the case of `Oc1nc2nonc2cc1Nc1cccc(C(F)(F)F)c1`, the negative logarithm of the EC50 (pEC50) in data set [3] turned out to be 5.8. Moreover, the Activity in data set [2] turned out to be 14%.

As to `Oc1nc2nonc2cc1Nc1ccc(OC(F)(F)F)cc1`, the pEC50 in data set [3] turned out to be 5.8. Also, the Activity in data set [2] was 14%.

As for `Oc1nc2nonc2cc1Nc1c(F)cccc1F`, the pEC50 result with L6 [1] was “inactive”. The Activity in data set [2] is on record as 6%.

Regarding `O=C(Nc1cc(Cl)cc(Cl)c1)Nc1cc(Cl)cc(Cl)c1`, the Activity in the data set on Mus musculus [8] was found to be 35%.

With `Oc1nc2nonc2cc1Nc1cc(F)c(C(F)(F)F)cc1F`, the pEC50 in data set [3] was determined as 6.1. Further, the Activity in data set [2] worked out at 26%.

On to `Oc1nc2nonc2cc1Nc1ccccc1F`, for which, in the data set with L6 [1], the pEC50 result was “inactive”.

As for `Oc1nc2nonc2cc1Nc1cc(F)ccc1C(F)(F)F`, in data set [3], the EC50 came out at 7.8 µM and the pEC50 was 5.1. For the same molecule, the Activity in data set [2] is on record as 53%.

`Oc1nc2nonc2cc1Nc1cc(C(F)(F)F)cc(C(F)(F)F)c1`: in data set [3], the pEC50 is recorded as 5.8. Also, the Activity in data set [2] was found to be 35%.

`Oc1nc2nonc2cc1Nc1ccc(C(F)(F)F)c(C(F)(F)F)c1`: in data set [3], the pEC50 turned out to be 6. Besides, the Activity in data set [2] was found to be 10%.

Take `Oc1nc2nonc2cc1Nc1cccc(OC(F)(F)F)c1`: the pEC50 in data set [3] is 5.3. The Activity in data set [2] was 17%.

For `Oc1nc2nonc2cc1Nc1cc(C(F)(F)F)ccc1F`, in data set [5], the t1/2 was determined as 1 h. In data set [3], the EC50 is 1.5 µM and the pEC50 is 5.4. In data set [6], this molecule had a maximum concentration (Cmax) of 46 µM. The Activity in data set [2] is reported as 54%.

For `Oc1nc2nonc2cc1Nc1c(F)cccc1C(F)(F)F`, the pEC50 in data set [3] amounted to 4.3. For the same molecule, in data set [2], the Activity worked out at 10%.

`Oc1nc2nonc2cc1Nc1c(F)c(F)c(C(F)(F)F)c(F)c1F` registered a t1/2 in data set [5] of 15.6 h. Further, in data set [3], the EC50 stood at 2 µM and the pEC50 worked out at 5.9. The molecule further came in with a maximum concentration (Cmax) in data set [6] of 21 µM. In data set [2], the Activity is listed as 69%.

As for `Oc1nc2nonc2cc1Nc1cccc(C(F)(F)F)c1F`, the pEC50 result in the data set with L6 [1] was “inactive”. In addition, the Activity in data set [2] is 3%.

`Oc1nc2nonc2cc1Nc1cc(C(F)(F)F)c(F)cc1F` returned a t1/2 in data set [5] of 1.3 h. Further, in data set [3], the EC50 was 1.4 µM and the pEC50 is 5.5. This molecule yielded a peak concentration (Cmax) in data set [6] of 25 µM. Further, the Activity in data set [2] is 51%.

For the molecule `Oc1nc2nonc2cc1Nc1cc(F)cc(F)c1`, the pEC50 in data set [3] stood at 4.3. The Activity in data set [2] was 24%.

Regarding `Oc1nc2nonc2cc1Nc1cc(OC(F)(F)F)ccc1F`, in data set [3], the EC50 came out at 3.4 µM and the pEC50 was found to be 5.5. Also, the Activity in data set [2] is listed as 59%.

`Oc1nc2nonc2cc1Nc1ccc(C(F)(F)F)c(F)c1`: in data set [3], the negative-log EC50 (pEC50) is recorded as 6.1. Further, the Activity in data set [2] is 10%.

Regarding `CS(=O)(=O)c1ccc(Nc2cc3nonc3nc2O)cc1`, in the data set with L6 [1], the pEC50 result is “inactive”. The outcome with L6 [4] was inactive.

With `O=S(=O)(c1cccc(Nc2cc3nonc3nc2O)c1)C(F)(F)F`, the pEC50 in data set [3] is given as more than 4. Besides, in data set [2], the Activity amounted to 13%.

As for `Oc1nc2nonc2cc1Nc1ccc(F)cc1C(F)(F)F`, in data set [3], the negative-log EC50 (pEC50) is listed as 5.3. The Activity in data set [2] was 29%.

With `Oc1nc2nonc2cc1Nc1ccc(OC(F)(F)F)cc1F`, the pEC50 in data set [3] turned out to be 5.8. The Activity in data set [2] is 11%.

In the case of `Oc1nc2nonc2cc1Nc1cccc(OC(F)(F)F)c1F`, in data set [3], the negative-log EC50 (pEC50) is recorded as 5.9. Besides, in data set [2], the Activity worked out at 30%.

Take `Oc1nc2nonc2cc1Nc1ccccc1C(F)(F)F`: the negative logarithm of the EC50 (pEC50) in data set [3] is given as 4.8. Further, the Activity in data set [2] came to 20%.

On to `O=S(=O)(c1ccc(Nc2cc3nonc3nc2O)cc1)C(F)(F)F`, for which the pEC50 in data set [3] amounted to 6. Further, the Activity in data set [2] is given as 25%.

The term pEC50 denotes the negative decadic logarithm of the EC50, by convention in mol/L. In general, EC50 refers to the concentration that produces a half-maximal response. In general, Cmax refers to the peak of the concentration-time curve.

Source of the values: ChEMBL document CHEMBL5247651, “Oxadiazolopyridine Derivatives as Efficacious Mitochondrial Uncouplers in the Prevention of Diet-Induced Obesity” (J Med Chem, 2023).
